Reference: publication PMC9202104 (BMC Biology, 2022)

How the values were obtained:
[1] = test system: ZIKV rhesus macaque strain MR 766; test: Plaque assay, inhibition of ZIKV infection (strain MR 766); assay type: cell-based; details: Zika virus, Vero C1008; plaque assay, Vero E6 cells, rhesus strain; read-out: IC50 MR 766
Description: After removal of the unbound compounds by centrifugation (after addition of 3% PEG-6000), ZIKV was incubated with Vero E6 cells in 24-well plates at 37°C for 1 h. The cells were then washed with PBS, overlaid with DMEM containing 1% carboxymethyl cellulose and 2% FBS, and cultured at 37°C for 4–5 days, followed by being stained with 0.5% crystal violet. […] Plaques in each well were calculated, and IC50 of compounds for each compound was calculated using the CalcuSyn computer program.

ZIKV EDIII protein = molecular target: T1, ZIKV EDIII protein (Zika virus, UniProt A0A024B7W1); test: SPR binding to ZIKV EDIII
T1 construct: EDIII (residues 298-409 in E protein containing a C-terminal human Fc tag); human Fc (C)
Description: (§1) (GE Healthcare, Port Washington, NY, USA). Briefly, ZIKV EDIII protein or NS2B-NS3 protein was immobilized on a sensor chip (CM5) using the Amine Coupling Kit (GE Healthcare). Serially diluted ST087010 was added as analytes, and HBS-EP with 10% DMSO (10 mM HEPES, 150 mM NaCl, 3 mM EDTA, 0.05% Tween-20, 10% DMSO, pH 7.4) was used as a running buffer. Biacore BK evaluation software (version 1.1) was applied to analyze the data, and the curve was fitted with a 1:1 binding model.

[2] = test system: ZIKV human strain PAN2016; test: ZIKV challenge in adult Ifnar1−/− mice, tissue viral titers and immunofluorescence; assay type: in vivo; details: 5 dpi
Description: (§2) Briefly, 7–8-week-old male mice were used, and two separate experiments were performed. […] These mice were i.p. infected with ZIKV (human strain R103451, 200 PFU/mouse) and observed daily for weight changes and survival until 21 dpi. […] Five days later, these mice were sacrificed, and their tissues, including the heart, testis, eye, kidney, and brain, were collected for detection of viral titers by plaque assay, or apoptosis by immunofluorescence staining. Mice losing 20% of initial weight with severe symptoms, including hind limb weakness and paralysis, or 25% of initial weight, were humanely euthanized with an overdose isoflurane in a Bell Jar, followed by cervical dislocation.
Plaque assay was used to detect viral titers in ZIKV-infected tissues. Briefly, tissues were homogenized with cold culture medium (DMEM + 2% FBS) and then centrifuged (2000 g at 4°C for 10 min). Supernatants were serially diluted to infect Vero E6 cells in 24-well plates. ZIKV titers in tissues were measured from ~40 mg of samples; thus, the detection limit was about 25 PFU/g of tissues.
Immunofluorescence staining was carried out to detect ZIKV and caspase-3 signals in ZIKV-infected mouse tissues. Briefly, tissues were fixed in 4% formaldehyde, embedded in paraffin, and sectioned. The tissue sections were deparaffinized, fixed, and permed using the FIX and PERM Cell Permeabilization Kit (Thermo Fisher Scientific, Waltham, MA, USA). After blocking with 5% BSA, the tissue slides were incubated at 37°C 2 h with ZIKV EDIII-specific human mAb (ZV-67, 1:100, Absolute Antibody, Boston, MA, USA), or rabbit anti-active caspase-3 antibody (1:100, Abcam). The slides were washed with PBS and incubated for 30 min with anti-human FITC antibody (1:100, for ZIKV), or anti-rabbit Alexa Fluor 647 antibody (1:100, for caspase-3). The slides were then counterstained for nuclei, using DAPI (300 nM, Thermo Fisher Scientific, Waltham, MA, USA) for 5 min, and mounted in VectaMount Permanent Mounting Medium (Vector Laboratories, CA, USA). The slides were analyzed using a confocal microscope (Zeiss LSM 880) and ZEN software, and fluorescent signals were quantified by ImageJ software.

DENV-2 human strain V594 = test: DENV-2 challenge in Ifnar1−/− mice, flow cytometry titers; assay type: in vivo; details: 20 mg/kg i.p., 3 dpi
Description: Three days after infection, sera and tissues, including the brain, kidney, and heart, were collected and assessed for DENV infection using a flow cytometry assay, as described below. Tissues were freshly homogenized with cold culture medium (EMEM + 2% FBS) and centrifuged at 4°C and 2000 g for 10 min. Serially diluted tissue supernatants and sera were added to C6/36 cells, as described below. DENV titers in tissues or sera were assessed from ~20 mg of tissue samples, or 25 μl of sera, and used for subsequent flow cytometry analysis.
Flow cytometry assay was carried out to analyze DENV-2 titers in the supernatants of homogenized tissues and sera from DENV-2-infected mice collected above. Briefly, homogenized tissue supernatants or sera were added to C6/36 cells (5×10^5 cells/well) pre-seeded in 24-well plates which the culture medium was removed, and the cells were incubated for 1 h (28°C, 5% CO2). After incubation, the cells were washed with PBS, incubated with EMEM containing 2% FBS, and then cultured for 3 days as described above. After further removal of medium, the cells were digested, washed with PBS, and resuspended in FIX/PERM solution (Tonbo Biosciences, San Diego, CA, USA), followed by incubation at 4°C for 1 h in the dark. The cells were then sequentially incubated with mouse anti-flavivirus mAb 4G2 (2 μg/ml) at 37°C for 1 h and FITC-labeled anti-mouse IgG (0.5 mg/ml, BioLegend, San Diego, CA, USA) at 37°C for 30 min, followed by analysis using a FACScan flow cytometer and Summit software. Viral titers (infectious units/ml or infectious units/g) were calculated using the formula ((% of infected cells)×(total number of cells)×(dilution factor)/(amount of inoculum added to cells)).

ZIKV NS2B-NS3 protein = molecular target: T2, ZIKV NS2B-NS3 protein (Zika virus, UniProt Q32ZE1); test: SPR binding to ZIKV NS2B-NS3
T2 construct: fused with the genes encoding NS3 protein (residues 1-185) through a linker (Gly4-Thr-Gly4); His6 (C); made in house; host or cells: E. coli
Description: as §1

in vitro = assay type: cell-based; details: rhesus monkey
Description: Briefly, compounds at 2-fold serial dilutions were added to the respective cells (2.0×10^4/well) pre-seeded in 96-well plates. The cells were cultured at 37°C in the presence of 5% CO2 for 3 days, […] incubated with CCK8 solution, followed by measurement of absorbance at 450 nm (A450 value), using a microplate reader (Infinite F200PRO, Tecan, Morrisville, NC, USA). CC50 of compounds was calculated using the CalcuSyn program.

[3] = test system: ZIKV human strain R103451; test: Lethal ZIKV challenge in adult Ifnar1−/− mice, survival and weight; assay type: in vivo
Description: as §2

[4] = C6/36 cells, flow cytometry, representative image

T2 sequence (Q32ZE1 1499-1683, added parts left off, change not shown): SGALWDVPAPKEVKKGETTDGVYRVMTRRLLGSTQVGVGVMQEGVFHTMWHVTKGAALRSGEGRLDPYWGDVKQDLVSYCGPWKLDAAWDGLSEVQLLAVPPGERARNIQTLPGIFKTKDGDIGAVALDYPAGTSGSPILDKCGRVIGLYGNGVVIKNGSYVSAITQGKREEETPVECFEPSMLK
T1 sequence (A0A024B7W1 588-699): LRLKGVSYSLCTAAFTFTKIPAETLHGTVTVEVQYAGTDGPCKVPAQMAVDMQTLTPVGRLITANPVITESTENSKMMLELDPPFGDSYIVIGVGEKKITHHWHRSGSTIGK

## Cc1cc2c(C(C)C)c(O)c(O)c(/C=N/n3c(=O)[nH][nH]c3=O)c2c(O)c1-c1c(C)cc2c(C(C)C)c(O)c(O)c(/C=N/n3c(=O)[nH][nH]c3=O)c2c1O [ST087010]
[1]
  IC50: 3.5 µM
ZIKV EDIII protein
  Kd: 4.95 µM
[2]; 20 mg/kg i.p., ZIKV PAN2016 200 PFU, compared to gossypol or DMSO-treated mice
  Viral titers in the heart, testis, eye, kidney, and brain: significantly reduced
[2]; immunofluorescence
  ZIKV+ signals in eye and testis tissues: undetectable
[2]; immunofluorescence, compared to DMSO
  Caspase-3 staining in eye and testis tissues: undetectable, or diminished
DENV-2 human strain V594; DENV-2 V594 2×10^6 PFU, compared to gossypol and DMSO
  Numbers of infected cells (viral titers) in the brain, kidney, heart, and sera: significantly reduced
DENV-2 human strain V594; [4]
  DENV-2 in brain, percentage of infected cells: 1.1%
  DENV-2 in heart, percentage of infected cells: 1.0%
  DENV-2 in kidney, percentage of infected cells: 3.1%
  DENV-2 in sera, percentage of infected cells: 1.3%
ZIKV NS2B-NS3 protein
  Kd: 19.9 µM
In vitro
  CC50 at 3 days: 47.2 ± 1.35 µM
[3]; 20 mg/kg i.p. 12 h before and 6, 24, 48 h post-infection, ZIKV R103451 200 PFU, observed 21 days
  Mice protected from death (survival): 50%
[3]; 20 mg/kg i.p., ZIKV R103451 200 PFU, ST087010 figure during 6–12 dpi
  Weight loss: less than 25%
[3]; 20 mg/kg i.p., ZIKV R103451, until 21 dpi
  Body weight relative to weight before the virus infection: 85%
